Test results published in the supplement of paper PMC10307832.

What was measured:
Experiment in all cases: relative viability (nuclei count vs DMSO), 5 days (fraction); higher = more cells survive
[1] = compound: CS(=O)(=O)CCNCc1ccc(-c2ccc3ncnc(Nc4ccc(OCc5cccc(F)c5)c(Cl)c4)c3c2)o1 [Lapatinib] + NC(=O)Nc1cc(-c2cccc(F)c2)sc1C(=O)N[C@H]1CCCNC1 [AZD7762] (partner 0.2 µM)
Method in brief: (§1)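 Dosing by pin tool came one day after lung cancer cell lines were seeded in 1536-well plates, using either one drug or a fixed anchor-drug dose plus five library-drug doses (not always all listed) in √10 steps. After 5 days, nuclei were counted on 4× images. Relative viability is treated-well nuclei count divided by vehicle-well nuclei count, and values are medians of duplicate plates.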

[2] = compound: CS(=O)(=O)CCNCc1ccc(-c2ccc3ncnc(Nc4ccc(OCc5cccc(F)c5)c(Cl)c4)c3c2)o1 [Lapatinib] + Cc1nc(Nc2ncc(C(=O)Nc3c(C)cccc3Cl)s2)cc(N2CCN(CCO)CC2)n1 [Dasatinib] (partner 0.075 µM)
Method in brief: as §1

[3] = compound: CC1=NC=CC(=C1)C2=CC=C(C=C2)CC(=O)NC3=CC=C(C=C3)C4=CN=CC=C4 [Wnt-C59] + N=C(N)NC(=N)NCCc1ccccc1 [Phenformin] (partner 250 µM)
Method in brief: as §1

[4] = compound: CC1=NC=CC(=C1)C2=CC=C(C=C2)CC(=O)NC3=CC=C(C=C3)C4=CN=CC=C4 [Wnt-C59] + COc1cc2c(Oc3ccc(NC(=O)C4(C(=O)Nc5ccc(F)cc5)CC4)cc3F)ccnc2cc1OCCCN1CCOCC1 [Foretinib] (partner 0.25 µM)
Method in brief: as §1

Cell Line	relative viability ([1]; first compound 0.06325 µM)	relative viability ([1]; first compound 0.2 µM)	relative viability ([1]; first compound 0.6325 µM)	relative viability ([1]; first compound 2 µM)	relative viability ([2]; first compound 0.06325 µM)	relative viability ([2]; first compound 0.2 µM)	relative viability ([2]; first compound 0.6325 µM)	relative viability ([2]; first compound 2 µM)	relative viability ([3]; first compound 0.001 µM)	relative viability ([3]; first compound 0.01 µM)	relative viability ([3]; first compound 0.03162 µM)	relative viability ([3]; first compound 0.1 µM)	relative viability ([4]; first compound 0.001 µM)	relative viability ([4]; first compound 0.01 µM)	relative viability ([4]; first compound 0.03162 µM)	relative viability ([4]; first compound 0.1 µM)	relative viability ([2]; first compound 0.02 µM)	relative viability ([1]; first compound 0.02 µM)
NCI-H522	0.731	0.845	1.07	0.612	0.907	0.901	0.67	0.787	0.614	0.599	0.601	0.64	–	–	–	–	–	–
NCI-H650	0.735	1.03	1.04	0.977	0.389	0.404	0.458	0.439	0.441	0.457	0.483	0.5	0.956	1.07	1.07	0.947	–	–
NCI-H460	0.62	0.679	0.537	0.387	0.345	0.372	0.624	0.452	0.488	0.524	0.519	0.484	1.03	0.966	1.02	0.94	0.496	–
HCC-827	0.299	0.129	0.19	0.103	0.313	0.281	0.377	0.155	0.431	0.413	0.452	0.391	1.08	1	1.03	1.04	0.334	0.172
NCI-H647	0.573	0.43	0.583	0.401	0.155	0.167	0.197	0.201	0.479	0.453	0.578	0.481	1.24	0.978	1.36	1.18	0.158	–
SW 1573	–	–	–	–	0.381	0.738	0.434	0.442	0.343	0.41	0.431	0.365	1.13	1.03	0.879	0.784	0.389	–
NCI-H2170	0.574	0.485	0.252	0.14	0.272	0.276	0.419	0.165	0.436	0.395	0.405	0.443	0.942	0.991	1.06	1.01	0.394	0.824
NCI-H358	0.364	0.379	0.388	0.282	0.0919	0.127	0.0982	0.14	0.343	0.257	0.431	0.337	0.759	0.648	1.04	0.678	0.138	0.459
COR-L 105	–	–	–	–	0.238	0.277	0.232	0.205	0.48	0.509	0.477	0.479	1.13	0.722	1.03	0.911	0.266	–
PC-3 [JPC-3]	0.477	–	0.655	0.414	0.87	1	0.977	0.624	0.486	0.467	0.52	0.502	1.05	1.12	1.14	1.05	0.877	–
NCI-H1993	–	0.86	0.499	0.455	–	0.55	0.516	0.563	0.49	–	0.472	0.514	0.81	–	0.987	0.706	0.564	0.615
NCI-H1734	0.42	0.587	0.507	0.541	0.384	0.544	0.511	0.488	0.389	0.356	0.478	0.354	0.808	0.839	0.922	0.962	0.456	–
ChaGo-K-1	0.805	0.926	0.942	0.882	0.531	0.544	0.527	0.592	0.557	0.466	0.531	0.539	1.01	0.872	0.978	0.996	0.43	0.703
LU99A	0.217	0.363	0.388	0.329	0.408	0.453	0.587	0.475	0.904	0.845	0.879	0.876	0.845	0.853	0.963	0.831	0.492	0.329
ABC-1	0.73	0.821	0.774	1.07	0.584	0.513	0.662	0.56	0.237	0.248	0.257	0.262	0.982	1.16	1.07	0.97	0.538	–
HCC-44	1.03	1.02	1.01	0.893	–	–	–	–	0.315	0.201	0.153	0.23	–	–	–	–	–	0.984
NCI-H1650	–	–	–	–	0.253	0.264	0.38	0.245	0.449	0.483	0.454	0.391	1.26	1.2	1.31	1.08	0.263	–
NCI-H596	0.878	0.939	1.1	0.819	0.521	0.621	0.573	0.486	0.746	0.71	0.923	0.722	0.885	0.899	0.835	0.898	–	–
NCI-H1915	0.71	0.685	0.705	0.592	0.285	0.337	0.293	0.297	0.362	0.392	0.385	0.367	1.12	1.03	1.16	1.09	–	–
NCI-H1395	0.364	0.428	0.383	0.414	0.39	0.375	0.439	0.425	0.442	0.423	0.495	0.429	0.99	1.01	0.984	1	0.43	–
CAL-12T	0.615	0.515	0.587	0.592	0.216	0.271	0.236	0.131	0.564	0.581	0.576	0.566	1.28	1.1	1.06	1.09	–	–
SW 900	0.549	0.549	0.591	0.466	0.435	0.479	0.595	0.373	0.633	0.607	0.555	0.574	1.14	0.667	1.18	1.01	–	–
NCI-H2342	0.408	0.381	0.447	0.394	0.293	0.301	0.303	0.263	0.616	0.63	0.756	0.746	1.06	1.16	1.18	1.07	0.262	0.421

Cell Line	relative viability ([1]; first compound 0.06325 µM)	relative viability ([1]; first compound 0.2 µM)	relative viability ([1]; first compound 0.6325 µM)	relative viability ([1]; first compound 2 µM)	relative viability ([2]; first compound 0.06325 µM)	relative viability ([2]; first compound 0.2 µM)	relative viability ([2]; first compound 0.6325 µM)	relative viability ([2]; first compound 2 µM)	relative viability ([3]; first compound 0.001 µM)	relative viability ([3]; first compound 0.01 µM)	relative viability ([3]; first compound 0.03162 µM)	relative viability ([3]; first compound 0.1 µM)	relative viability ([4]; first compound 0.001 µM)	relative viability ([4]; first compound 0.01 µM)	relative viability ([4]; first compound 0.03162 µM)	relative viability ([4]; first compound 0.1 µM)	relative viability ([2]; first compound 0.02 µM)	relative viability ([1]; first compound 0.02 µM)
NCI-H1299	–	–	–	–	–	–	–	–	–	–	–	–	1.15	1.06	1.05	1.11	–	–
HARA	0.379	0.51	0.344	0.247	0.195	0.244	0.242	0.19	0.458	0.49	0.528	0.447	0.823	0.765	1.01	0.841	–	0.174
H3255	0.892	0.799	0.664	0.501	0.325	0.315	0.288	0.18	0.372	0.321	0.356	0.332	0.944	0.892	1.12	0.951	0.316	0.818
NCI-H1792	–	0.568	0.665	0.365	–	0.754	0.68	0.425	0.363	0.301	–	0.22	–	–	–	–	0.763	–
NCI-H2023	–	–	–	–	–	0.516	0.619	0.381	0.406	0.415	0.419	0.35	1.1	0.788	1.01	0.667	0.458	–
HCC-78	0.528	0.422	0.599	0.564	0.42	0.333	0.464	0.411	0.548	0.685	0.701	0.72	0.496	0.511	0.518	0.515	–	–
NCI-H1623	–	–	–	–	0.491	–	0.578	0.21	0.582	0.562	0.607	0.572	0.886	0.732	0.989	0.893	0.541	–
HOP-62	0.526	0.669	0.501	0.568	0.633	0.615	0.69	0.566	0.771	0.603	0.662	0.607	1.1	1.06	1.07	1.19	0.508	–
NCI-H1755	0.402	0.371	0.433	0.541	0.278	0.422	0.381	0.394	0.486	0.631	0.609	0.632	0.884	0.895	0.55	0.866	0.375	0.449
SK-MES-1	–	–	–	–	0.143	0.157	0.19	0.126	0.673	0.69	0.694	0.695	0.974	0.81	0.905	0.918	0.243	–
NCI-H2009	–	–	–	–	0.244	0.358	0.33	0.286	0.535	0.514	0.495	0.469	1.26	1.21	1.22	0.819	0.282	–
Calu-6	–	–	–	–	–	–	–	–	–	–	–	–	0.856	0.903	0.936	0.834	–	–
NCI-H661	–	–	–	–	0.572	0.504	0.523	0.368	0.292	0.311	0.27	0.288	1	0.981	1.06	0.976	0.759	–
A549	–	–	–	–	–	–	–	–	0.213	0.144	0.253	0.169	1.09	0.969	0.974	0.906	–	–
COR-L23	–	–	–	–	0.441	0.508	0.565	0.443	0.427	0.471	0.442	0.416	0.993	0.916	0.853	0.913	0.501	–
NCI-H1703	0.119	–	0.121	0.113	–	–	–	–	–	–	–	–	0.346	0.279	0.355	0.348	–	–
NCI-H2228	–	–	–	–	0.426	0.606	0.52	0.49	0.325	0.385	0.294	0.415	0.758	0.778	0.751	0.594	0.397	–
NCI-H520	–	–	–	–	0.161	0.265	0.178	0.187	0.503	0.59	0.59	0.55	0.792	0.696	0.867	0.689	0.235	–
NCI-H1563	–	–	–	–	0.405	0.425	0.491	0.435	0.688	0.673	0.693	0.666	0.911	0.931	0.926	0.898	0.505	–
SK-LU-1	–	–	–	–	0.159	0.179	0.205	0.182	0.476	0.49	0.506	0.503	0.791	0.796	0.87	0.792	0.162	–
IA-LM	–	–	–	–	–	–	–	–	–	–	–	–	1.23	1.01	1.11	1.03	–	–
EBC-1	–	–	–	–	–	–	–	–	–	–	–	–	0.112	0.11	0.126	0.106	–	–
NCI-H1648	0.921	0.612	0.643	0.658	–	–	–	–	–	–	–	–	–	–	–	–	–	–
